Measured values: patent US11725011B2, “Bicyclic urea kinase inhibitors and uses thereof” (The Broad Institute, Inc., priority 2016, dated 2023)

Tests used:
Test in all cases: KINOMEscan
Type in all cases: binding
Conditions in all cases: 1 uM
[1] = molecular target: ABL1 (E255K)-phosphorylated (Homo sapiens (Human), UniProt P00519, E255K)
[2] = molecular target: ABL1 (H396P)-nonphosphorylated (Homo sapiens (Human), UniProt P00519, H396P)
ABL1-nonphosphorylated = ABL1-nonphosphorylated (Homo sapiens (Human), UniProt P00519)
ACVR1 = ACVR1 (Homo sapiens (Human), UniProt Q04771)
AURKC = AURKC (Homo sapiens (Human), UniProt Q9UQB9)
BRAF = BRAF (Homo sapiens (Human), UniProt P15056)
CAMK2B = CAMK2B (Homo sapiens (Human), UniProt Q13554)
CAMK2G = CAMK2G (Homo sapiens (Human), UniProt Q13555)
CAMKK2 = CAMKK2 (Homo sapiens (Human), UniProt Q96RR4)
CDK4-cyclinD1 = CDK4-cyclinD1 (Homo sapiens (Human), UniProt P11802)
CDK8 = CDK8 (Homo sapiens (Human), UniProt P49336)
EPHB6 = EPHB6 (Homo sapiens (Human), UniProt O15197)
FGFR3 (G697C) = FGFR3 (G697C) (Homo sapiens (Human), UniProt P22607, G697C)
FLT3 (ITD) = tested on: FLT3 (ITD)
GAK = GAK (Homo sapiens (Human), UniProt O14976)
αK3A = αK3A (Homo sapiens (Human), UniProt P49840)
HUNK = HUNK (Homo sapiens (Human), UniProt P57058)
IKK-beta = IKK-beta (Homo sapiens (Human), UniProt O14920)
INSRR = INSRR (Homo sapiens (Human), UniProt P14616)
[3] = molecular target: JAK3 (JH1domain-catalytic) (Homo sapiens (Human), UniProt P52333)
KIT = KIT (Homo sapiens (Human), UniProt P10721)
KIT (L576P) = KIT (L576P) (Homo sapiens (Human), UniProt P10721, L576P)
LKB1 = LKB1 (Homo sapiens (Human), UniProt Q15831)
MAP4K3 = MAP4K3 (Homo sapiens (Human), UniProt Q8IVH8)
MAPKAPK2 = MAPKAPK2 (Homo sapiens (Human), UniProt P49137)
MARK1 = MARK1 (Homo sapiens (Human), UniProt Q9P0L2)
MKNK2 = MKNK2 (Homo sapiens (Human), UniProt Q9HBH9)
NEK11 = NEK11 (Homo sapiens (Human), UniProt Q8NG66)
NEK5 = NEK5 (Homo sapiens (Human), UniProt Q6P3R8)
OSR1 = OSR1 (Homo sapiens (Human), UniProt O95747)
PDGFRA = PDGFRA (Homo sapiens (Human), UniProt P16234)
PHKG1 = PHKG1 (Homo sapiens (Human), UniProt Q16816)
PRKCI = PRKCI (Homo sapiens (Human), UniProt P41743)
[4] = molecular target: RSK3 (Kin.Dom.1-N-terminal) (Homo sapiens (Human), UniProt Q15349)
SIK2 = SIK2 (Homo sapiens (Human), UniProt Q9H0K1)
SRC = SRC (Homo sapiens (Human), UniProt P12931)
TRKA = TRKA (Homo sapiens (Human), UniProt P04629)
TRPM6 = TRPM6 (Homo sapiens (Human), UniProt Q9BX84)
ULK1 = ULK1 (Homo sapiens (Human), UniProt O75385)
VEGFR2 = VEGFR2 (Homo sapiens (Human), UniProt P35968)
YANK2 = YANK2 (Homo sapiens (Human), UniProt Q9NY57)

AURKC, sequence (Q9UQB9 whole entry): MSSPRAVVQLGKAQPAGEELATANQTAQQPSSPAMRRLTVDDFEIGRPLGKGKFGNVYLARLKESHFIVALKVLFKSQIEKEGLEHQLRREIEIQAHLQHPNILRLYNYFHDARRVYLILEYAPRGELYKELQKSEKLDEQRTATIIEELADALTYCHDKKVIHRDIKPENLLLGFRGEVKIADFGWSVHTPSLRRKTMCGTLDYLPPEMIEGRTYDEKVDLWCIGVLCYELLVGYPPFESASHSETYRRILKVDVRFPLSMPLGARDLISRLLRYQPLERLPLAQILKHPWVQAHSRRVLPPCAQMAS
ULK1, sequence (O75385 whole entry): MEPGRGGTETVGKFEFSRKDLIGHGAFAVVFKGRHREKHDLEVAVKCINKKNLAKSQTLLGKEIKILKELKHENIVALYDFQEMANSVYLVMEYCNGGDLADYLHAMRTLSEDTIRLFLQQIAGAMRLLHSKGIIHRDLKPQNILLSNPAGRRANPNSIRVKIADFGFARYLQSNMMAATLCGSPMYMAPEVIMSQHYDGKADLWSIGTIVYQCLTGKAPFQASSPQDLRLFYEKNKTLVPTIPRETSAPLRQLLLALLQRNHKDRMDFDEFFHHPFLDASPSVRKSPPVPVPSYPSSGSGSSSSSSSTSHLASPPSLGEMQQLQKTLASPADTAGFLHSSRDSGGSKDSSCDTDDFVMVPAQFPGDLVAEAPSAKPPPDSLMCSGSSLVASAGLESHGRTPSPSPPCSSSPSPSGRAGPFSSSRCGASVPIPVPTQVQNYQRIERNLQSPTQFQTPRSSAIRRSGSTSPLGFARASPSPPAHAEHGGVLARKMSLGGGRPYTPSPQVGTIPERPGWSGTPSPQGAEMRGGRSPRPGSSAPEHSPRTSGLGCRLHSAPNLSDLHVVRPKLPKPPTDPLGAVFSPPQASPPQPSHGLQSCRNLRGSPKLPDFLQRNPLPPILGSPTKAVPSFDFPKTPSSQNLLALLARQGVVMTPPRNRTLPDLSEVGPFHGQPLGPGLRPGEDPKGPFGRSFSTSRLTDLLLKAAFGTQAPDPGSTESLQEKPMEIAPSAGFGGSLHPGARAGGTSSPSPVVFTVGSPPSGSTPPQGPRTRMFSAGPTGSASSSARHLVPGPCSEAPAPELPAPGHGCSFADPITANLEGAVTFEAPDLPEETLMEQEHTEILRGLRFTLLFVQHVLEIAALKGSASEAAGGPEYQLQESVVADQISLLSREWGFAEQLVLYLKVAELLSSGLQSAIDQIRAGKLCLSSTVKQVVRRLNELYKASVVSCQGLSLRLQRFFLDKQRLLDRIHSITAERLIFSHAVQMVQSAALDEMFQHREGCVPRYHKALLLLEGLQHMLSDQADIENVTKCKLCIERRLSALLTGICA
KIT (L576P), sequence (P10721 26-976 L576P): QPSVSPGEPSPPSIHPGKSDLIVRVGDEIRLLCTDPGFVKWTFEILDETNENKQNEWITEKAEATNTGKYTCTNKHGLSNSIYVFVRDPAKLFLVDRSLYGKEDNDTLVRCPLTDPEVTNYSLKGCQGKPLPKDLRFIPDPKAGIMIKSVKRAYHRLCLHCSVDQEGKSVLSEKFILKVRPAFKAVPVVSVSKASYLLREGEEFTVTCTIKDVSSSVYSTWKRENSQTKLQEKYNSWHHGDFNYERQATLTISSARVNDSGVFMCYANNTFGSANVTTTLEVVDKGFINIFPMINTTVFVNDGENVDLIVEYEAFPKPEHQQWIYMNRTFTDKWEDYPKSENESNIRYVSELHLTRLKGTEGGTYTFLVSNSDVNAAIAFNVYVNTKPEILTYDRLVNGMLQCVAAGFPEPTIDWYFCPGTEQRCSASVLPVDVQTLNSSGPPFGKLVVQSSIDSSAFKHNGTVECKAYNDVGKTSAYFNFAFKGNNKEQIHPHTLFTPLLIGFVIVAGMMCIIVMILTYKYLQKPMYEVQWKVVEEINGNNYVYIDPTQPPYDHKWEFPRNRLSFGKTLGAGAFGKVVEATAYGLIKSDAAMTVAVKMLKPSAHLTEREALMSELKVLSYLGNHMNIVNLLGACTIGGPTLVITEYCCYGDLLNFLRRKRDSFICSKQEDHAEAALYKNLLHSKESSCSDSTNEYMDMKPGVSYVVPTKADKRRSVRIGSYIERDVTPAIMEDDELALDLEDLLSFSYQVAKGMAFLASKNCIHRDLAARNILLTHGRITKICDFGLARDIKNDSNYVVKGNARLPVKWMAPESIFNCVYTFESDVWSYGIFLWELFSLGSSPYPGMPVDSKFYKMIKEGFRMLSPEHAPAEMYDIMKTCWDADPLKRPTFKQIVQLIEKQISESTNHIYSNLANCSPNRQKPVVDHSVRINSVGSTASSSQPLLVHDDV
NEK5, sequence (Q6P3R8 whole entry): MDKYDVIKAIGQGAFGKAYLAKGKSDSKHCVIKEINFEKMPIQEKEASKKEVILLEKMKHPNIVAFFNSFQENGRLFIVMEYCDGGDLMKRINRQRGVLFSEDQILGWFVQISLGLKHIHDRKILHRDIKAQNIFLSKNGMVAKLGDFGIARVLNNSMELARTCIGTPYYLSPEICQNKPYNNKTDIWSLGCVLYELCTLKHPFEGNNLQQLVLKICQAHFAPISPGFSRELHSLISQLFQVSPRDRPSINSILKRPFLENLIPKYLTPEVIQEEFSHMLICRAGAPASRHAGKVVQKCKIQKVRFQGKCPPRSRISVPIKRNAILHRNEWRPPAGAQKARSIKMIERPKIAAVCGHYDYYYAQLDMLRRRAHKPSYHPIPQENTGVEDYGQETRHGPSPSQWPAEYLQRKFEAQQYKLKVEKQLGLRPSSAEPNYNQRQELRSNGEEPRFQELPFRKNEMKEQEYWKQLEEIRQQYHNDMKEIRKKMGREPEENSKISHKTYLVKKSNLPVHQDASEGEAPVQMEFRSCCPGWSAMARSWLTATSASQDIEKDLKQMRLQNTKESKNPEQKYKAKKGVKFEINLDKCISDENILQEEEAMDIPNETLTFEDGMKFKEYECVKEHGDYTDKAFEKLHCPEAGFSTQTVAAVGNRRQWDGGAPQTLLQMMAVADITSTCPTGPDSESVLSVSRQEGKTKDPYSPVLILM
PRKCI, sequence (P41743 whole entry): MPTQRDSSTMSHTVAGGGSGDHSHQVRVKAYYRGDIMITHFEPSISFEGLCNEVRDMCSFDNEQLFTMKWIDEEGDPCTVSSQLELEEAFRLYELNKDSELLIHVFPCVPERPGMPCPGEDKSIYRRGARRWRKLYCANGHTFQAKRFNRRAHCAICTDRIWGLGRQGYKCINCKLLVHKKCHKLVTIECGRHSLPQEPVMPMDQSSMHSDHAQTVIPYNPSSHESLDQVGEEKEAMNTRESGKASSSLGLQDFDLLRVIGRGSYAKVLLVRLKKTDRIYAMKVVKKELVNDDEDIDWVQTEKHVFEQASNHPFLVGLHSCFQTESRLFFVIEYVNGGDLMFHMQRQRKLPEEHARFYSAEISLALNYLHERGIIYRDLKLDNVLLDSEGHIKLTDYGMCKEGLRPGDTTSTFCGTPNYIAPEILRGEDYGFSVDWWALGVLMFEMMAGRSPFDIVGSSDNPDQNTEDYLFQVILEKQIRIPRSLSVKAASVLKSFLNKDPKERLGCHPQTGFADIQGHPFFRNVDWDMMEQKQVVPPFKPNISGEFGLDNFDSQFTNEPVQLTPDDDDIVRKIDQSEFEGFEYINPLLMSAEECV
RSK3 (Kin.Dom.1-N-terminal), sequence (Q15349 59-318): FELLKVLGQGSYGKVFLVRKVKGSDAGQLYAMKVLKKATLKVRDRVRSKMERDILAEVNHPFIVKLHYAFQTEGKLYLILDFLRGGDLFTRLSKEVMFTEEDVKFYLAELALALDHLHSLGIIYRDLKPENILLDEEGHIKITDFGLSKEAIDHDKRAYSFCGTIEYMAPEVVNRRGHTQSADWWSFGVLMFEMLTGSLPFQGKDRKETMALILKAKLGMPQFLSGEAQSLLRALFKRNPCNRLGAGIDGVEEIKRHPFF
CAMKK2, sequence (Q96RR4 whole entry): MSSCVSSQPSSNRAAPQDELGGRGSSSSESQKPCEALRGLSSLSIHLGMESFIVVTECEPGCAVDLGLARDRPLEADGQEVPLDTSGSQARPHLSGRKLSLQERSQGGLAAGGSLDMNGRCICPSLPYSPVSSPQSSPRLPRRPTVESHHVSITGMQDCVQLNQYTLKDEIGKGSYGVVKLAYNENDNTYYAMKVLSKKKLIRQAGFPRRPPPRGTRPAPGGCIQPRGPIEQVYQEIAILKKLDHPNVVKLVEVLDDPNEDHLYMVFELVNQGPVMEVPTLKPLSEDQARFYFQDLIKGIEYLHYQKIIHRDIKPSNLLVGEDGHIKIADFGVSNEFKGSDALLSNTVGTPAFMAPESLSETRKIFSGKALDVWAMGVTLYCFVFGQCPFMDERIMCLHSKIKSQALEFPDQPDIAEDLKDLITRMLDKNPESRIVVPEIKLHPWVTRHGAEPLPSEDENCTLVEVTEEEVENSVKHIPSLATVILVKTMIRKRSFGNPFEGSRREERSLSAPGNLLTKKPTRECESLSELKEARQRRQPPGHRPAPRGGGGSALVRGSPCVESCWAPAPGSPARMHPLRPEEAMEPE
JAK3 (JH1domain-catalytic), sequence (P52333 822-1111): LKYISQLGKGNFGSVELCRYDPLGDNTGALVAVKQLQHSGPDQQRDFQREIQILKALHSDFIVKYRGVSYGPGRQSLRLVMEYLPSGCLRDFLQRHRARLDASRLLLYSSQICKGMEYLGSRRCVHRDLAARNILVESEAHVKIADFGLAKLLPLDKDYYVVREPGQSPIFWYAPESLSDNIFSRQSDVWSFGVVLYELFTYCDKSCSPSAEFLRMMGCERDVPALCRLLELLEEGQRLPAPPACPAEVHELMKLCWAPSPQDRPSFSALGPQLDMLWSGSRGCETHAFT
KIT, sequence (P10721 26-976): as the sequence (P10721 26-976 L576P) above, with P551L counted along it

## COc1ccc(N2C(=O)N(c3c(C)cccc3C)Cc3cnc(Nc4ccc(N5CCN(C)CC5)cc4)nc32)c(OC)c1 [HG-11-136-01]
[1]
  KINOMEscan ABL1 (E255K)-phosphorylated: 0.4
[2]
  KINOMEscan ABL1 (H396P)-nonphosphorylated: 0
ABL1-nonphosphorylated
  KINOMEscan ABL1-nonphosphorylated: 0
ACVR1
  KINOMEscan ACVR1: 2.8
AURKC
  KINOMEscan AURKC: 33
BRAF
  KINOMEscan BRAF: 26
CAMK2B
  KINOMEscan CAMK2B: 90
CAMK2G
  KINOMEscan CAMK2G: 100
CAMKK2
  KINOMEscan CAMKK2: 100
CDK4-cyclinD1
  KINOMEscan CDK4-cyclinD1: 9
CDK8
  KINOMEscan CDK8: 100
EPHB6
  KINOMEscan EPHB6: 0.7
FGFR3 (G697C)
  KINOMEscan FGFR3 (G697C): 1.4
FLT3 (ITD)
  KINOMEscan FLT3 (ITD): 57
GAK
  KINOMEscan GAK: 6.8
αK3A
  KINOMEscan αK3A: 100
HUNK
  KINOMEscan HUNK: 28
IKK-beta
  KINOMEscan IKK-beta: 80
INSRR
  KINOMEscan INSRR: 100
[3]
  KINOMEscan JAK3 (JH1domain-catalytic): 0
KIT
  KINOMEscan KIT: 0
KIT (L576P)
  KINOMEscan KIT (L576P): 0
LKB1
  KINOMEscan LKB1: 69
MAP4K3
  KINOMEscan MAP4K3: 1.8
MAPKAPK2
  KINOMEscan MAPKAPK2: 100
MARK1
  KINOMEscan MARK1: 5.1
MKNK2
  KINOMEscan MKNK2: 99
NEK11
  KINOMEscan NEK11: 21
NEK5
  KINOMEscan NEK5: 98
OSR1
  KINOMEscan OSR1: 49
PDGFRA
  KINOMEscan PDGFRA: 0.5
PHKG1
  KINOMEscan PHKG1: 100
PRKCI
  KINOMEscan PRKCI: 63
[4]
  KINOMEscan RSK3 (Kin.Dom.1-N-terminal): 40
SIK2
  KINOMEscan SIK2: 6.1
SRC
  KINOMEscan SRC: 0.15
TRKA
  KINOMEscan TRKA: 41
TRPM6
  KINOMEscan TRPM6: 69
ULK1
  KINOMEscan ULK1: 3.2
VEGFR2
  KINOMEscan VEGFR2: 1.8
YANK2
  KINOMEscan YANK2: 1.8
